How the values were obtained:
serum glucose = test: Serum glucose lowering in fasted rats, single orogastric dose, monitored over 24 hours; format: in vivo; conditions: sodium DCA 100 mg/kg or derivative equivalent to 100 mg/kg DCA
Text: (§1) Results are expressed as (1) maximum percent decrease in glucose or lactace, relative to control, (2) the time at which the maximum changes occurred, and (3) the duration of action of the drug.

blood lactate = test: Blood lactate lowering in fasted rats, single orogastric dose, monitored over 24 hours; format: in vivo; conditions: for duration of action (blood lactate decrease): single orogastric dose, sodium DCA 100 mg/kg or derivative equivalent to 100 mg/kg DCA
Text: as §1

[1] = one human patient, about four months; resolved when treatment stopped; cited from earlier work
lactic acid levels = conditions: patients with lactic acidosis; cited from earlier work
[2] = chronic administration, doses exceeding those used clinically; cited from earlier work
[3] = test system: hepatic glucose production; conditions: cited from earlier work
blood cholesterol = conditions: patients with various forms of hyperlipidemia; cited from earlier work
peripheral tissues = conditions: cited from earlier work
lactate oxidation = conditions: animal tissues; cited from earlier work
blood glucose = conditions: patients with diabetes mellitus; cited from earlier work
[4] = test system: circulating triglyceride and cholesterol; conditions: obese and diabetic animals; cited from earlier work
[5] = cited from earlier work
[6] = Comparative pharmacokinetic investigations (bioavailability, oxalate formation); format: in vivo; conditions: comparative pharmacokinetic investigations with DCA and Derivative 4

Compound: O=C(O)C(Cl)Cl [DCA, dichloroacetic acid]
- duration of action (serum glucose decrease) (serum glucose): 17 h
- duration of action (blood lactate decrease) (blood lactate): 18 h
- polyneuropathy [1]: mild polyneuropathy that resolved when treatment stopped
- lactic acid levels and overall morbidity (lactic acid levels): significantly decreases lactic acid levels and overall morbidity in patients with lactic acidosis
- chronic toxicity [2]: reversible peripheral neuropathy, changes in testicular morphology and lenticular opacities
- hepatic glucose production [3]: inhibits hepatic glucose production
- blood cholesterol levels (blood cholesterol): markedly decreases blood cholesterol levels
- glucose uptake and utilization (peripheral tissues): stimulates glucose uptake and utilization by peripheral tissues
- lactate oxidation (lactate oxidation): stimulates lactate oxidation in animal tissues
- blood glucose levels (blood glucose): decrease blood glucose levels in patients with diabetes mellitus
- circulating triglyceride and cholesterol concentrations [4]: reduces circulating triglyceride and cholesterol concentrations
- in vivo oxidation [5]: oxidize in vivo to glyoxylate and subsequently to oxalate

Compound: O=C(OC1OC(C(=O)O)C(OC(=O)C(Cl)Cl)C(OC(=O)C(Cl)Cl)C1OC(=O)C(Cl)Cl)C(Cl)Cl (stereo not shown) [Derivative 1, potassium tetra(dichloroacetyl)glucuronate]
- duration of action (serum glucose decrease) (serum glucose): > 24 h
- duration of action (blood lactate decrease) (blood lactate): > 24 h

Compound: O=C(OC1C(O)C(OP(=O)(O)O)C(OC(=O)C(Cl)Cl)C(OC(=O)C(Cl)Cl)C1OC(=O)C(Cl)Cl)C(Cl)Cl (stereo not shown) [Derivative 2, inositol monophosphatetetradichloroacetate]
- duration of action (serum glucose decrease) (serum glucose): 24 h
- duration of action (blood lactate decrease) (blood lactate): > 24 h

Compound: O=C(OC1C(OC(=O)C(Cl)Cl)C(OC(=O)C(Cl)Cl)C(OC(=O)C(Cl)Cl)C(OC(=O)C(Cl)Cl)C1OC(=O)C(Cl)Cl)C(Cl)Cl (stereo not shown) [Derivative 3, inositol hexadichloroacetate]
- duration of action (serum glucose decrease) (serum glucose): 6 h
- potency relative to DCA (blood lactate) (blood lactate; FIG. 2, dose equivalent to 100 mg/kg DCA): less potent than DCA
- duration of action (blood lactate decrease) (blood lactate): 8 h

Compound: C[n+]1cccc(C(=O)OC2C(OC(=O)c3ccc[n+](C)c3)C(OC(=O)c3ccc[n+](C)c3)C(OC(=O)c3ccc[n+](C)c3)C(OC(=O)c3ccc[n+](C)c3)C2OC(=O)c2ccc[n+](C)c2)c1 (stereo not shown) [Derivative 4, inositol hexa(N-methylnicotinate-dichloroacetate)]
- duration of action (serum glucose decrease) (serum glucose): > 24 h
- formation of oxalate [6]: minimal and unlikely to be toxic
- duration of action (blood lactate decrease) (blood lactate): > 24 h

Source: US4801597A, “Certain inositol-nicotinate ester derivatives and polyionic complexes therefore useful for treating diabetes meuitus, hyperlipidemia and lactic acidosis” (University of Florida, priority 1985, dated 1989)
